Laboratory results: PMC6843786, “Temporin-SHa and Its Analogs as Potential Candidates for the Treatment of Helicobacter pylori” (Biomolecules, 2019)
Like-named read-outs stand apart in the source and are kept apart here. Non-standard residues stand in square brackets, D forms with d. Residues, ends and D or L forms follow the SMILES beside them.

Legend:
H. pylori (ATCC 43504) [1] = test system: H. pylori (ATCC 43504)
Protocol: (§1) Briefly, after the growth of H. pylori in liquid culture the optical density (OD) of the bacterial suspensions were read at 600 nm and adjusted to one. Stock solutions of the peptides at 1 mM were prepared in sterile water. Bacteria were diluted in medium to reach bacterial density around 10^5 bacteria/mL. One-hundred microliters per well of bacterial suspension were then added into sterile polypropylene 96-well microplates (Greiner BioOne, Paris, France) and exposed to increasing concentrations of peptides (from zero to 100 µM, 1:2 serial dilution). […] Plates were incubated at 37 °C for 24 h for H. pylori (ATCC 43504) and for 4–7 days for the clinical strains. H. pylori was tested in microaerophilic conditions generated using micro-anaerobic BD GasPak system. At the end of the incubation, OD600nm was measured using microplate reader (Synergy Mx, Biotek, Colmar, France). The MIC was defined as the lowest concentration of drug that inhibited visible growth of the organism. Experiments were conducted in independent triplicate (n = 3).
(§2) It is also rich with mucus to protect it from the aggressive acidity. For this reason, the impact of mucins and pepsin on the activity of the peptides was investigated. The impact of the gastric mucins on peptide activity was evaluated using a combination of commercial porcine stomach mucins MUC2 and MUC3 (Sigma–Aldrich) at a final concentration of 1 mg/mL sterilized using 0.2 µm filter. This concentration was used based on the estimated concentration of mucins present in the mucus in vivo [27]. The effect of mucins on peptides activity was evaluated by MIC and by time killing assay as explained below. The resistance of the peptides to pepsin was tested as previously described with some changes. […] This concentration was used since it corresponds the pepsin concentration in the stomach (0.5–1 mg/mL).

H. pylori (ATCC 43504) [2] = conditions: ATCC 43504, 24 h
From the text: H. pylori used in this study were either the reference strain obtained from the American Type Culture Collection (ATCC 43504) or clinical strains received frozen from our collaborator Josette Raymond from Hospital Cochin, Paris. Strains were obtained from patients who underwent a gastroendoscopy performed for various gastro-intestinal disorders according to the recommendations of Haute Autorité de Santé (HAS). During the endoscopy, biopsy samples were taken from antrum and corpus. Samples were then crushed, and the material was used for bacterial culture and molecular methods. An antibiogram was performed and strains were then frozen at -80 °C in a broth with 10% glycerol. Bacteria were cultured as previously described. Briefly, H. pylori (ATCC 43504) was cultured in brain heart infusion (BHI) and incubated at 37 °C for 16 h in microaerophilic condition in BD GasPak EZ using BD GasPak EZ CampyPak container system sachets (BD Biosciences, Le Pont-de-Claix, France). For clinical strains, a sample from the frozen bacteria was streaked on Blood Agar (Base) (Sigma-Aldrich, Illkirch-Graffenstaden, France) supplemented with 5% horse defibrinated blood (Fisher Scientific, Les Ulis, France) and 2% isovitale-X (Fisher Scientific, Illkirch-Graffenstaden, France). The petri dishes were then incubated at 37 °C for 4–7 days in microaerophilic condition. Then, a colony is transferred to 3 mL Mueller Hinton (MH) broth supplemented with 10% fetal bovine serum (FBS) and 2% isovitale-X. The cultures were then incubated for 4–7 days until the bacteria grow before further experiments.
as §1

[3] = test system: total lipids extracted from H. pylori (ATCC 43504); test: Lipid insertion assay (lipid monolayer, critical pressure of insertion); design: species or system biophysical; conditions: peptide 1 µM, PBS pH 7.4, from the line fits of Figure 4
Protocol: Peptide-lipid interaction was measured using reconstituted lipid monolayer at the air-water interface as previously described. Total lipids were extracted from overnight cultures of H. pylori (ATCC 43504) using Folch extraction procedure as previously described. Extracted total lipids were dried, resolubilized in chloroform:methanol (2:1, v/v) and stored at -20 °C under nitrogen. For peptide-lipid interaction assay, total lipid extract was spread using a 50 μL Hamilton's syringe at the surface of 800 μL of sterile PBS creating a lipid monolayer at the air-water interface. Lipids were added until the surface pressure reached the desired value. […] The variation of the surface pressure caused by peptide injection was then continuously monitored using a fully automated microtensiometer (μTROUGH SX, Kibron Inc., Helsinki, Finland) until reaching equilibrium (maximal surface pressure increase being usually obtained after 15-25 min). […] Variation of surface pressure was plotted as a function of initial surface pressure and the critical pressure of insertion of each peptide into H. pylori lipids was calculated as the theoretical value of initial pressure of lipid monolayer not permissive to peptide insertion, i.e., giving a variation of pressure equal to 0 mN/m.

H. pylori (ATCC 43504) [4] = test: MIC after digestion by pepsin (resistance to pepsin); conditions: ATCC 43504, 4 h, pH 2
Protocol: as §1, §2

N87 cells = test: In vitro toxicity assay using human gastric cells (resazurin); type: cell-based; conditions: for IC50: 48 h
Protocol: [26] Human gastric cells N87 (ATCC CRL-5822) were cultured in RPMI-1640 medium supplemented with 10% fetal calf serum (FCS), 1% L-glutamine and 1% antibiotics (all from Invitrogen, Carlsbad, CA, USA) and were routinely seeded onto 25 cm^2 flasks maintained in a 5% CO2 incubator at 37 °C. For the toxicity assay, cells grown on 25 cm^2 flasks were detached using trypsin–EDTA solution (from Thermofisher), counted using Mallasez counting chamber and seeded into 96-well cell culture plates (Greiner Bio-one) at approximately 10^4 cells per well. The cells were left to grow for 48–72 h at 37 °C in a 5% CO2 incubator until they reached confluence. Plates were then aspirated and increasing concentrations of peptides were added to the cells for 48 h at 37 °C in a 5% CO2 incubator, volume of water corresponding to the volume of peptides being used as negative control. At the end of the incubation, wells were aspirated, and cell viability was evaluated using resazurin-based in vitro toxicity assay kit (Sigma-Aldrich) following manufacturer’s instructions. Briefly, resazurin stock solution was diluted 1:10 in sterile PBS containing calcium and magnesium (PBS^++, pH 7.4) and empty wells were filled with 100 µL of the diluted solution. After 4 h incubation at 37 °C, fluorescence intensity was measured using microplate reader (Synergy Mx, Biotek) with an excitation wavelength of 530 nm and an emission wavelength of 590 nm. The fluorescence values were normalized by the controls and expressed as percent viability.

H. pylori (ATCC 43504) [5] = test system: H. pylori (ATCC 43504); remark: listed apart in the source
Protocol: The bactericidal activity of peptides was assessed using the time kill assay as previously described with some modifications. Briefly, overnight liquid culture of H. pylori (ATCC 43504) was prepared and an optical density measurement (OD600nm) was taken to provide an estimation of cell numbers in the culture. Bacterial suspension was then centrifuged at 3000 rpm for 5 min and the bacterial pellet was then resuspended in sterile PBS pH6 at approximatively 10^7 CFU/mL. The pH of PBS was changed from 7 to 6 with HCl to mimic the micro-environment surrounding H. pylori in the stomach. Indeed, although the lumen of the stomach is around 1–2, H. pylori is able, through the activity of its urease, to create a local micro-environment around it of pH 6 [31]. In addition to PBS pH 6, the time kill assay was also performed in PBS pH 6 containing a mixture of porcine stomach mucins MUC2 and MUC3 (at 1 mg/mL, final concentration) or in the presence of human gastric cells N87 producing human mucus. In that particular case, N87 cells were seeded onto 96-wells plates and left to grow for 48–72 h until they reached confluence. At that time, wells were aspirated and bacterial suspension in PBS pH 6 were added to the wells. In all cases, resuspended bacteria (200 µL) were treated with peptides or the conventional antibiotic amoxicillin at a final concentration corresponding to five times their MIC. Bacteria were then incubated in micro-aerobic conditions at 37 °C using GasPak units. […] The petri dishes were then incubated 16 h at 37 °C in microaerophilic conditions before counting of growing colonies. The number of surviving bacteria was calculated using the number of observed colonies and the dilution factor. The experiment was done in triplicate.

SMILES | MIC in the Presence of mucins (H. pylori (ATCC 43504) [1]; ATCC 43504, 24 h) [µM] | increase of MIC in the presence of mucins (H. pylori (ATCC 43504) [1]; MUC2 and MUC3 at 1 mg/mL versus no mucins) | MIC on H. pylori (ATCC 43504) (H. pylori (ATCC 43504) [2]) [µM] | MIC after Digestion by Pepsin (H. pylori (ATCC 43504) [4]) [µM] | critical pressure of insertion (CPI) [3] [mN/m] | increase in toxicity to human gastric cells compared to temporin-SHa (N87 cells) | IC50 (N87 cells) [µM] | killing (H. pylori (ATCC 43504) [5]; 20 min, PBS pH 6, 5-times MIC) [%] | killing (H. pylori (ATCC 43504) [5]; 3 h (180 min), PBS pH 6, 5-times MIC) [%] | killing (H. pylori (ATCC 43504) [5]; 3 h, absence or presence of mucus, 5-times MIC) | killing (H. pylori (ATCC 43504) [5]; 9 h (540 min), 5-times MIC) [%]
CC[C@H](C)[C@H](NC(=O)CNC(=O)[C@H](CO)NC(=O)[C@H](CC(C)C)NC(=O)[C@@H](N)Cc1ccccc1)C(=O)N[C@H](C(=O)N[C@H](C)C(=O)N[C@@H](CCSC)C(=O)N[C@@H](CC(C)C)C(=O)N[C@H](C)C(=O)N[C@@H](CCCCN)C(=O)N[C@@H](CC(C)C)C(=O)N[C@@H](Cc1ccccc1)C(N)=O)C(C)C [NST6, H-Phe^1-Leu^2-Ser^3-Gly^4-Ile^5-Val^6-D-Ala^7-Met^8-Leu^9-D-Ala^10-Lys^11-Leu^12-Phe^13-NH2] (H-FLSGIV[dA]ML[dA]KLF-NH2) |  |  | 3.12 |  | 44.43 | around 15 fold | 104 ± 9.3 |  |  |  | 
CC1(C)S[C@@H]2[C@H](NC(=O)[C@H](N)c3ccc(O)cc3)C(=O)N2[C@H]1C(=O)O [amoxicillin, reference compound] |  |  |  |  |  |  |  | 9 | 34 | 31.5–55% | 75
CC[C@H](C)[C@H](NC(=O)[C@@H](C)NC(=O)[C@H](CO)NC(=O)[C@H](CC(C)C)NC(=O)[C@@H](N)Cc1ccccc1)C(=O)N[C@H](C(=O)NCC(=O)N[C@@H](CCSC)C(=O)N[C@@H](CC(C)C)C(=O)N[C@H](C)C(=O)N[C@@H](CCCCN)C(=O)N[C@@H](CC(C)C)C(=O)N[C@@H](Cc1ccccc1)C(N)=O)C(C)C [NST7, H-Phe^1-Leu^2-Ser^3-D-Ala^4-Ile^5-Val^6-Gly^7-Met^8-Leu^9-D-Ala^10-Lys^11-Leu^12-Phe^13-NH2] (H-FLS[dA]IVGML[dA]KLF-NH2) |  |  |  |  | 33 | around 15 fold | 84.7 ± 9 |  |  |  | 

More lines, main results first:

MIC in the Presence of mucins (H. pylori (ATCC 43504) [1]; ATCC 43504, 24 h) [µM] | increase of MIC in the presence of mucins (H. pylori (ATCC 43504) [1]; MUC2 and MUC3 at 1 mg/mL versus no mucins) | MIC on H. pylori (ATCC 43504) (H. pylori (ATCC 43504) [2]) [µM] | MIC after Digestion by Pepsin (H. pylori (ATCC 43504) [4]) [µM] | SMILES | critical pressure of insertion (CPI) [3] [mN/m] | increase in toxicity to human gastric cells compared to temporin-SHa (N87 cells) | IC50 (N87 cells) [µM] | killing (H. pylori (ATCC 43504) [5]; 20 min, PBS pH 6, 5-times MIC) [%] | killing (H. pylori (ATCC 43504) [5]; 3 h (180 min), PBS pH 6, 5-times MIC) [%] | killing (H. pylori (ATCC 43504) [5]; 3 h, absence or presence of mucus, 5-times MIC) | killing (H. pylori (ATCC 43504) [5]; 9 h (540 min), 5-times MIC) [%]
6.25 | two | 3.12 | >50 | CC[C@H](C)[C@H](NC(=O)CNC(=O)[C@H](CO)NC(=O)[C@H](CC(C)C)NC(=O)[C@@H](N)Cc1ccccc1)C(=O)N[C@H](C(=O)N[C@H](C)C(=O)N[C@@H](CCSC)C(=O)N[C@@H](CC(C)C)C(=O)NCC(=O)N[C@@H](CCCCN)C(=O)N[C@@H](CC(C)C)C(=O)N[C@@H](Cc1ccccc1)C(N)=O)C(C)C [NST3, H-Phe^1-Leu^2-Ser^3-Gly^4-Ile^5-Val^6-D-Ala^7-Met^8-Leu^9-Gly^10-Lys^11-Leu^12-Phe^13-NH2] (H-FLSGIV[dA]MLGKLF-NH2) | 35.73 | around 3 fold | 520 ± 148 |  |  |  | 
 |  | 6.25 to 12.5 |  | CC[C@H](C)[C@H](NC(=O)[C@@H](C)NC(=O)[C@H](CO)NC(=O)[C@H](CC(C)C)NC(=O)[C@@H](N)Cc1ccccc1)C(=O)N[C@H](C(=O)N[C@H](C)C(=O)N[C@@H](CCSC)C(=O)N[C@@H](CC(C)C)C(=O)NCC(=O)N[C@@H](CCCCN)C(=O)N[C@@H](CC(C)C)C(=O)N[C@@H](Cc1ccccc1)C(N)=O)C(C)C [NST4, H-Phe^1-Leu^2-Ser^3-D-Ala^4-Ile^5-Val^6-D-Ala^7-Met^8-Leu^9-Gly^10-Lys^11-Leu^12-Phe^13-NH2] (H-FLS[dA]IV[dA]MLGKLF-NH2) | 39.12 | around 5 fold | 306 ± 48.4 |  |  |  | 
